# Read-outs that look alike come from different tables or passages of the source.
# Key:
# [1] = Pharmacokinetics after single IV and oral dose, Beagle dogs; format: in vivo; details: Dog, male
# Procedure: (§1) AUClast=area under the plasma concentration-time curve from time zero to time of last measurable concentration; Cmax=maximum plasma concentration; F=oral bioavailability; hr=hour, PK=pharmacokinetic; SD=standard deviation; t1/2 z=apparent half-life of the terminal phase of the concentration-time curve; tmax=time of Cmax. In mouse, PK parameters were determined using composite plasma samples obtained from n=3animals/time point. In other species, PK parameters are from n=3 animals and values shown are mean and SD (in parentheses).
# NCI-H841 SCLC cell line = assay: Antiproliferative activity, NCI-H841; format: cell-based, human; details: 3D assay; Calcein AM
# [2] = test system: H3K4me2 at ST18 and FREM2 gene loci in MS-1 cells; assay: ChIP-seq LSD1 occupancy and H3K4me2 status, MS-1; format: cell-based, human; details: 100 nM, 3 days
# [3] = Pharmacokinetics after single IV and oral dose, Cynomolgus monkeys; format: in vivo; details: Monkey, male
# Procedure: as §1
# [4] = test system: gene expression (ST18, FREM2) in MS-1 cells; assay: Gene expression modulation (RNA-seq, qRT-PCR) in cultured MS-1 cells; format: cell-based, human; details: 10 and 100 nM, three days
# Procedure: (§2) 22, 66, or 200 nM for qRT-PCR analysis.
# (§3) Libraries were sequenced on an Illumina NextSeq® 500 System (Illumina, San Diego, Calif.) using 75 base paired-end RNA sequencing. Sequenced reads were mapped to the hg19 human genome build and differential expression was determined by analysis of variance across all replicates relative to the vehicle control
# (§4) Sequenced reads were mapped to the hg19 human genome build using the Spliced Transcripts Alignment to a Reference (STAR) software tool (©Alexander Dobin, 2009-2016) and transcript counts were normalized using the Empirical Analysis of Digital Gene Expression Data in R (edgeR) and Differential gene expression analysis based on the negative binomial distribution (DESeq2) software tools (©Bioconductor, 2003-2017). Differential expression was determined by analysis of variance across all replicates relative to the vehicle control.
# [5] = 4-week oral gavage toxicity study with 4-week recovery in dogs (QW/BIW); details: for mean AUC0-168 / mean Cmax: 0.375 mg base/kg/dose QW; for Steady state Cmax: 0.75 mg base/kg/dose QW
# [6] = Excretion in bile duct cannulated rats (IV); format: in vivo; details: 24-hour period post dosing
# [7] = molecular target: MDR1 (human P-gp) MDCK cells (Homo sapiens (Human), UniProt P08183); assay: Permeability in MDR1 (human P-gp) MDCK cells; details: B→A direction
# NCI-H1417 SCLC xenograft = format: in vivo
# [8] = test system: gene expression (ST18, FREM2) in MKL-1 cells; assay: Gene expression modulation (RNA-seq, qRT-PCR) in cultured MKL-1 cells; format: cell-based, human; details: 10 and 100 nM, three days
# Procedure: as §2, §3, §4
# LNCaP cells = assay: LNCaP cell proliferation with rapamycin; format: cell-based, human; details: 100 nM Compound A + 100 nM rapamycin vs rapamycin alone; 90 hours
# [9] = test system: LXFS 1129 SCLC patient-derived xenograft
# [10] = test system: LXFS 573 SCLC patient-derived xenograft; assay: Efficacy in LXFS 573 SCLC PDX model; format: in vivo, mice; details: for % TGI / TGI: Day 28
# [11] = test system: GA0087 gastric NEC patient-derived xenograft; assay: Efficacy in GA0087 gastric neuroendocrine carcinoma PDX model; details: for Median Tumor Volumes Day 46: head prints Day 46, title Day 53
# [12] = QW 1.25 mg oral dose, 60-kg human, 80% oral bioavailability assumed
# [13] = test system: LXFS 2156 SCLC patient-derived xenograft; assay: Efficacy in LXFS 2156 SCLC PDX model; format: in vivo, mice; details: 5 mg base/kg orally QD×23
# [14] = 0.375 mg base/kg/dose BIW, males, Day 22
# [15] = Dogs, Day 1, 0.75 mg base/kg/dose oral once weekly, M
# [16] = Dogs, Day 1, 1.5 mg base/kg/dose oral once weekly, F
# [17] = Dogs, Day 1, 1.5 mg base/kg/dose oral once weekly, M
# [18] = Dogs, Day 22, 0.375 mg base/kg/dose oral once weekly, F
# [19] = Dogs, Day 22, 0.375 mg base/kg/dose oral once weekly, M
# [20] = Dogs, Day 22, 0.375 mg base/kg/dose oral twice weekly, M
# [21] = Dogs, Day 22, 0.75 mg base/kg/dose oral once weekly, F
# [22] = Dogs, Day 22, 0.75 mg base/kg/dose oral once weekly, M
# [23] = QW or BIW schedule, not determined
# [24] = Compound A monotherapy 5 mg/kg PO 5 on/2 off
# [25] = etoposide 24 mg/kg SC QD×3 followed by Compound A 5 mg/kg PO 5 on/2 off
# Sequence of MDR1 (human P-gp) MDCK cells (P08183 whole entry): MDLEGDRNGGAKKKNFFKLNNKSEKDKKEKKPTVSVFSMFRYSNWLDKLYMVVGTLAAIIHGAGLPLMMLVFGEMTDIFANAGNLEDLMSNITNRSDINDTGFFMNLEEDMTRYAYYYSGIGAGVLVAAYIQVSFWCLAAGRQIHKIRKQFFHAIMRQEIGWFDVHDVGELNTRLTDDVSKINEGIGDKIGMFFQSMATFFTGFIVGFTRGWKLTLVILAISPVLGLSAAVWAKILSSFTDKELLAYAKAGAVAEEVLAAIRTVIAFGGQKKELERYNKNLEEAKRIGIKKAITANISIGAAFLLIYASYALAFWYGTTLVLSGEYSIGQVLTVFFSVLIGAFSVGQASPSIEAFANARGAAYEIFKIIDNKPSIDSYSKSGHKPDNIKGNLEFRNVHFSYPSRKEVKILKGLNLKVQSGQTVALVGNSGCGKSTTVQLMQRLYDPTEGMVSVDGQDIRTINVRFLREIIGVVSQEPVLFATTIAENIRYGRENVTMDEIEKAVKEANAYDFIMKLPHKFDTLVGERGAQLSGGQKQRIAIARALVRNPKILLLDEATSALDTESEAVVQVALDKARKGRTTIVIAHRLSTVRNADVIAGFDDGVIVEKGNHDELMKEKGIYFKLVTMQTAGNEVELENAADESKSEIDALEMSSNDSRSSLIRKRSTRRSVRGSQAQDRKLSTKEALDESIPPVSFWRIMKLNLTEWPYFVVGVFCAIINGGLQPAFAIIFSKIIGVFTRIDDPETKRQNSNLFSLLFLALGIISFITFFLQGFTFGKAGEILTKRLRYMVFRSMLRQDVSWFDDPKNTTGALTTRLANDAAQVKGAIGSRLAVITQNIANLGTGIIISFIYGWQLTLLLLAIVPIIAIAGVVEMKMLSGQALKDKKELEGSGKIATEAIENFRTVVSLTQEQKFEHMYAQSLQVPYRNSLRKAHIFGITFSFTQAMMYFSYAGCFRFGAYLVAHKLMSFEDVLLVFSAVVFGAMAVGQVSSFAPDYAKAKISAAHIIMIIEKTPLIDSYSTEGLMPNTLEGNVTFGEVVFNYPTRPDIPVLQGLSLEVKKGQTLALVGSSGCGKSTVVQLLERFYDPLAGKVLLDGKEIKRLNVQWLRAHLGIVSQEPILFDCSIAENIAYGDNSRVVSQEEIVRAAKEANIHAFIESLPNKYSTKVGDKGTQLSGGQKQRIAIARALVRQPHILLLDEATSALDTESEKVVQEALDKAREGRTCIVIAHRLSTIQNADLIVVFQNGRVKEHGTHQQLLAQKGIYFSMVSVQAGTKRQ
structure (smiles),measurement,setting,value
COc1ccc(-c2c(-c3ccc(C#N)c(F)c3)nc(N3CCC(N)CC3)n(C)c2=O)cc1F [Compound A],AUC∞,[1]; single IV 1 mg base/kg,1944 ng·h/mL
same,CL,[1]; single IV 1 mg base/kg,9 mL/min/kg
same,Vss,[1]; single IV 1 mg base/kg,11.058 L/kg
same,"t1/2,z",[1]; single IV 1 mg base/kg,15.5 h
same,% F,[1]; single oral 1 mg base/kg,84%
same,AUClast,[1]; single oral 1 mg base/kg,1089 ng·h/mL
same,Cmax,[1]; single oral 1 mg base/kg,69 ng/mL
same,"t1/2,z",[1]; single oral 1 mg base/kg,15.0 h
same,tmax,[1]; single oral 1 mg base/kg,2.0 h
same,% F,[1]; single oral 3 mg base/kg,100%
same,AUClast,[1]; single oral 3 mg base/kg,3792 ng·h/mL
same,Cmax,[1]; single oral 3 mg base/kg,298 ng/mL
same,"t1/2,z",[1]; single oral 3 mg base/kg,19.4 h
same,tmax,[1]; single oral 3 mg base/kg,1.0 h
same,% F,[1]; single oral 6 mg base/kg,100%
same,AUClast,[1]; single oral 6 mg base/kg,8792 ng·h/mL
same,Cmax,[1]; single oral 6 mg base/kg,627 ng/mL
same,"t1/2,z",[1]; single oral 6 mg base/kg,17.8 h
same,tmax,[1]; single oral 6 mg base/kg,1.0 h
same,IC50,NCI-H841 SCLC cell line,> 500 µM
same,H3K4me2 at the LSD1 binding site of ST18 gene,[2],increased H3K4me2
same,AUC∞,[3]; single IV 1 mg base/kg,983 ng·h/mL
same,CL,[3]; single IV 1 mg base/kg,18 mL/min/kg
same,Vss,[3]; single IV 1 mg base/kg,17.119 L/kg
same,"t1/2,z",[3]; single IV 1 mg base/kg,12.0 h
same,% F,[3]; single oral 5 mg base/kg,82%
same,AUClast,[3]; single oral 5 mg base/kg,3618 ng·h/mL
same,Cmax,[3]; single oral 5 mg base/kg,187 ng/mL
same,"t1/2,z",[3]; single oral 5 mg base/kg,12.9 h
same,tmax,[3]; single oral 5 mg base/kg,6.0 h
same,ST18 and FREM2 gene expression changes (upregulated),[4],at least 2 fold
same,Cmax,"[5]; 0.375 mg base/kg/dose BIW, females, Day 22",19.0 ng/mL
same,Cmax,[5]; [14],17.7 ng/mL
same,mean AUC0-72,[5]; [14],307 ng·h/mL
same,mean AUC0-168,"[5]; females, Day 22",269 ng·h/mL
same,mean Cmax,"[5]; females, Day 22",15.5 ng/mL
same,mean AUC0-168,"[5]; males, Day 22",384 ng·h/mL
same,mean Cmax,"[5]; males, Day 22",21.9 ng/mL
same,Steady state Cmax,[5]; females,40.8 ng/mL
same,Steady state Cmax,[5]; males,36.2 ng/mL
same,AUC0-168,"[5]; Dogs, Day 1, 0.375 mg base/kg/dose oral once weekly, M",503 ng·h/mL
same,AUC0-72,"[5]; Dogs, Day 1, 0.375 mg base/kg/dose oral twice weekly, M",420 ng·h/mL
same,AUC0-168,"[5]; Dogs, Day 1, 0.75 mg base/kg/dose oral once weekly, F",1180 ng·h/mL
same,AUC0-168,[5]; [15],955 ng·h/mL
same,Cmax,[5]; [15],34 ng/mL
same,AUC0-168,[5]; [16],2680 ng·h/mL
same,Cmax,[5]; [16],80.0 ng/mL
same,AUC0-168,[5]; [17],2530 ng·h/mL
same,Cmax,[5]; [17],90.6 ng/mL
same,AUC0-168,[5]; [18],269 ng·h/mL
same,Cmax,[5]; [18],15.5 ng/mL
same,AUC0-168,[5]; [19],384 ng·h/mL
same,Cmax,[5]; [19],21.9 ng/mL
same,Cmax,"[5]; Dogs, Day 22, 0.375 mg base/kg/dose oral twice weekly, F",19.0 ng/mL
same,AUC0-72,[5]; [20],307 ng·h/mL
same,Cmax,[5]; [20],17.7 ng/mL
same,AUC0-168,[5]; [21],719 ng·h/mL
same,Cmax,[5]; [21],40.8 ng/mL
same,AUC0-168,[5]; [22],645 ng·h/mL
same,Cmax,[5]; [22],36.2 ng/mL
same,HNSTD,[5]; [23],< 0.375 mg base/kg/dose
same,NOAEL,[5]; [23],< 0.375 mg base/kg/dose
same,moribund euthanasia,"[5]; weekly oral 0.375-1.5 mg base/kg/dose, between study Days 13 and 23",11 animals
same,primary toxicities,"[5]; ≥0.375 mg base/kg/dose, QW or BIW","mucosal ulceration, acute and/or subacute inflammation, and mucosal epithelial atrophy ofGI tract tissues"
same,dose excreted intact in urine,[6],8.5 % of dose
same,permeability,[7],16.5 ×10⁻⁶ cm/s
same,% TGD,NCI-H1417 SCLC xenograft; [24],335%
same,TGD,NCI-H1417 SCLC xenograft; [24],87 days
same,median TTE,NCI-H1417 SCLC xenograft; [24],113 days
same,% TGD,NCI-H1417 SCLC xenograft; [25],435%
same,TGD,NCI-H1417 SCLC xenograft; [25],113 days
same,median TTE,NCI-H1417 SCLC xenograft; [25],139 days
same,ST18 and FREM2 gene expression changes (upregulated),[8],at least 2 fold
same,LNCaP cell proliferation,LNCaP cells,greater inhibition of LNCap cell proliferaton
same,AUC0-24,[9]; 1.5 mg base/kg,243 ng·h/mL
same,AUC0-24,[9]; 5 mg base/kg,"1,262 ng·hr/mL"
same,mean body weight losses,"[9]; mouse, in vivo",< 6%
same,% TGI,[10]; 5 mg base/kg PO QD × 28,72%
same,TGI,[10]; 5 mg base/kg oral,78%
same,TGI,[10]; 7.5 mg base/kg oral,58%
same,% TGI,[10]; 10 mg base/kg PO QD × 28,71%
same,TGI,[10]; 10 mg/kg oral,71%
same,mean body weight losses,"[10]; mouse, in vivo",≤ 3%
same,Median Tumor Volumes Day 46,[11]; 1.5 mg base/kg PO QD × 53,706.4 mm^3
same,Median Tumor Volumes Diff.,[11]; 5 mg base/kg PO QD × 53,836.3 mm^3
same,Median Tumor Volumes Day 46,[11]; 5 mg base/kg PO QD × 53,673.2 mm^3
same,predicted steady state systemic exposure (AUCt),[12],29 ng·h/mL
same,TGI,[13],−7%

# Source: patent publication US10960005B2, “Treatment of relapsed and/or refractory solid tumors and non-hodgkin's lymphomas” (CELGENE QUANTICEL RESEARCH, INC., priority 2016, dated 2021)
